According to the NIST ThermoML archive (doi:10.1021/acs.jced.8b01048):
± gives the expanded uncertainty stated by the source.

Experiment: xn = mol fraction of the nth substance listed
Details: 100 kPa, Liquid, Vibrating tube method

SMILES: CC(=O)[O-].CCn1cc[n+](C)c1 [1-ethyl-3-methylimidazolium acetate] + C[S+](C)[O-]
- mass density (293.15 K, x2 = 0): 1101.7 ± 0.5 kg/m3
- mass density (293.15 K, x2 = 0.053): 1102.4 ± 0.5 kg/m3
- mass density (293.15 K, x2 = 0.103): 1103 ± 0.5 kg/m3
- mass density (293.15 K, x2 = 0.196): 1103.8 ± 0.5 kg/m3
- mass density (293.15 K, x2 = 0.301): 1104.9 ± 0.5 kg/m3
- mass density (293.15 K, x2 = 0.401): 1105.8 ± 0.5 kg/m3
- mass density (293.15 K, x2 = 0.501): 1106.6 ± 0.5 kg/m3
- mass density (293.15 K, x2 = 0.6): 1107.4 ± 0.5 kg/m3
- mass density (293.15 K, x2 = 0.686): 1107.6 ± 0.5 kg/m3
- mass density (293.15 K, x2 = 0.802): 1107.2 ± 0.5 kg/m3
- mass density (293.15 K, x2 = 0.899): 1105.4 ± 0.5 kg/m3
- mass density (303.15 K, x2 = 0): 1095.6 ± 0.5 kg/m3
- mass density (303.15 K, x2 = 0.053): 1096.3 ± 0.5 kg/m3
- mass density (303.15 K, x2 = 0.103): 1096.9 ± 0.5 kg/m3
- mass density (303.15 K, x2 = 0.196): 1097.5 ± 0.5 kg/m3
- mass density (303.15 K, x2 = 0.301): 1098.4 ± 0.5 kg/m3
- mass density (303.15 K, x2 = 0.401): 1099 ± 0.5 kg/m3
- mass density (303.15 K, x2 = 0.501): 1099.5 ± 0.5 kg/m3
- mass density (303.15 K, x2 = 0.6): 1099.9 ± 0.5 kg/m3
- mass density (303.15 K, x2 = 0.686): 1099.9 ± 0.5 kg/m3
- mass density (303.15 K, x2 = 0.802): 1098.8 ± 0.5 kg/m3
- mass density (303.15 K, x2 = 0.899): 1096.3 ± 0.5 kg/m3
- mass density (313.15 K, x2 = 0): 1089.6 ± 0.5 kg/m3
- mass density (313.15 K, x2 = 0.053): 1090.3 ± 0.5 kg/m3
- mass density (313.15 K, x2 = 0.103): 1090.8 ± 0.5 kg/m3
- mass density (313.15 K, x2 = 0.196): 1091.2 ± 0.5 kg/m3
- mass density (313.15 K, x2 = 0.301): 1091.8 ± 0.5 kg/m3
- mass density (313.15 K, x2 = 0.401): 1092.2 ± 0.5 kg/m3
- mass density (313.15 K, x2 = 0.501): 1092.4 ± 0.5 kg/m3
- mass density (313.15 K, x2 = 0.6): 1092.5 ± 0.5 kg/m3
- mass density (313.15 K, x2 = 0.686): 1092 ± 0.5 kg/m3
- mass density (313.15 K, x2 = 0.802): 1090.4 ± 0.5 kg/m3
- mass density (313.15 K, x2 = 0.899): 1087.3 ± 0.5 kg/m3
- mass density (323.15 K, x2 = 0): 1083.7 ± 0.5 kg/m3
- mass density (323.15 K, x2 = 0.053): 1084.2 ± 0.5 kg/m3
- mass density (323.15 K, x2 = 0.103): 1084.5 ± 0.5 kg/m3
- mass density (323.15 K, x2 = 0.196): 1084.8 ± 0.5 kg/m3
- mass density (323.15 K, x2 = 0.301): 1085.2 ± 0.5 kg/m3
- mass density (323.15 K, x2 = 0.401): 1085.3 ± 0.5 kg/m3
- mass density (323.15 K, x2 = 0.501): 1085.4 ± 0.5 kg/m3
- mass density (323.15 K, x2 = 0.6): 1085.1 ± 0.5 kg/m3
- mass density (323.15 K, x2 = 0.686): 1084.3 ± 0.5 kg/m3
- mass density (323.15 K, x2 = 0.802): 1082 ± 0.5 kg/m3
- mass density (323.15 K, x2 = 0.899): 1078.3 ± 0.5 kg/m3
- mass density (333.15 K, x2 = 0): 1077.7 ± 0.5 kg/m3
- mass density (333.15 K, x2 = 0.053): 1078.1 ± 0.5 kg/m3
- mass density (333.15 K, x2 = 0.103): 1078.3 ± 0.5 kg/m3
- mass density (333.15 K, x2 = 0.196): 1078.4 ± 0.5 kg/m3
- mass density (333.15 K, x2 = 0.301): 1078.7 ± 0.5 kg/m3
- mass density (333.15 K, x2 = 0.401): 1078.7 ± 0.5 kg/m3
- mass density (333.15 K, x2 = 0.501): 1078.3 ± 0.5 kg/m3
- mass density (333.15 K, x2 = 0.6): 1077.8 ± 0.5 kg/m3
- mass density (333.15 K, x2 = 0.686): 1076.6 ± 0.5 kg/m3
- mass density (333.15 K, x2 = 0.802): 1073.7 ± 0.5 kg/m3
- mass density (333.15 K, x2 = 0.899): 1069.3 ± 0.5 kg/m3
- mass density (343.15 K, x2 = 0): 1071.8 ± 0.5 kg/m3
- mass density (343.15 K, x2 = 0.053): 1072 ± 0.5 kg/m3
- mass density (343.15 K, x2 = 0.103): 1072.2 ± 0.5 kg/m3
- mass density (343.15 K, x2 = 0.196): 1072.2 ± 0.5 kg/m3
- mass density (343.15 K, x2 = 0.301): 1072.1 ± 0.5 kg/m3
- mass density (343.15 K, x2 = 0.401): 1071.8 ± 0.5 kg/m3
- mass density (343.15 K, x2 = 0.501): 1071.3 ± 0.5 kg/m3
- mass density (343.15 K, x2 = 0.6): 1070.4 ± 0.5 kg/m3
- mass density (343.15 K, x2 = 0.686): 1068.9 ± 0.5 kg/m3
- mass density (343.15 K, x2 = 0.802): 1065.4 ± 0.5 kg/m3
- mass density (343.15 K, x2 = 0.899): 1060.3 ± 0.5 kg/m3
- mass density (353.15 K, x2 = 0): 1065.9 ± 0.5 kg/m3
- mass density (353.15 K, x2 = 0.053): 1066.1 ± 0.5 kg/m3
- mass density (353.15 K, x2 = 0.103): 1066.1 ± 0.5 kg/m3
- mass density (353.15 K, x2 = 0.196): 1065.9 ± 0.5 kg/m3
- mass density (353.15 K, x2 = 0.301): 1065.6 ± 0.5 kg/m3
- mass density (353.15 K, x2 = 0.401): 1065.2 ± 0.5 kg/m3
- mass density (353.15 K, x2 = 0.501): 1064.4 ± 0.5 kg/m3
- mass density (353.15 K, x2 = 0.6): 1063.1 ± 0.5 kg/m3
- mass density (353.15 K, x2 = 0.686): 1061.2 ± 0.5 kg/m3
- mass density (353.15 K, x2 = 0.802): 1057.1 ± 0.5 kg/m3
- mass density (353.15 K, x2 = 0.899): 1051.3 ± 0.5 kg/m3
- mass density (363.15 K, x2 = 0): 1060 ± 0.5 kg/m3
- mass density (363.15 K, x2 = 0.053): 1060.1 ± 0.5 kg/m3
- mass density (363.15 K, x2 = 0.103): 1060 ± 0.5 kg/m3
- mass density (363.15 K, x2 = 0.196): 1059.8 ± 0.5 kg/m3
- mass density (363.15 K, x2 = 0.301): 1059.3 ± 0.5 kg/m3
- mass density (363.15 K, x2 = 0.401): 1058.4 ± 0.5 kg/m3
- mass density (363.15 K, x2 = 0.501): 1057.5 ± 0.5 kg/m3
- mass density (363.15 K, x2 = 0.6): 1055.8 ± 0.5 kg/m3
- mass density (363.15 K, x2 = 0.686): 1053.6 ± 0.5 kg/m3
- mass density (363.15 K, x2 = 0.802): 1048.8 ± 0.5 kg/m3
- mass density (363.15 K, x2 = 0.899): 1042.3 ± 0.5 kg/m3
- mass density (373.15 K, x2 = 0): 1054.2 ± 0.5 kg/m3
- mass density (373.15 K, x2 = 0.053): 1054.1 ± 0.5 kg/m3
- mass density (373.15 K, x2 = 0.103): 1054 ± 0.5 kg/m3
- mass density (373.15 K, x2 = 0.196): 1053.6 ± 0.5 kg/m3
- mass density (373.15 K, x2 = 0.301): 1052.9 ± 0.5 kg/m3
- mass density (373.15 K, x2 = 0.401): 1051.8 ± 0.5 kg/m3
- mass density (373.15 K, x2 = 0.501): 1050.6 ± 0.5 kg/m3
- mass density (373.15 K, x2 = 0.6): 1048.5 ± 0.5 kg/m3
- mass density (373.15 K, x2 = 0.686): 1046 ± 0.5 kg/m3
- mass density (373.15 K, x2 = 0.802): 1040.4 ± 0.5 kg/m3
- mass density (373.15 K, x2 = 0.899): 1033.2 ± 0.5 kg/m3
